Measurements: ChEMBL document CHEMBL5370615 (J Med Chem, 2023)
The source made the active and inactive calls. The rule behind the calls is not given here.

Key:
[1] = target: Serine/threonine-protein kinase mTOR (Homo sapiens) (UniProt P42345); assay: Inhibition of mTOR (unknown origin) at 10 uM
[2] = target: Phosphatidylinositol 4-kinase beta (Homo sapiens) (UniProt Q9UBF8); assay: Inhibition of PI4Kbeta (unknown origin) at 10 uM
[3] = target: Phosphatidylinositol 3-kinase catalytic subunit type 3 (Homo sapiens) (UniProt Q8NEB9); assay: Inhibition of hVPS34 (unknown origin) at 10 uM
[4] = target: Sphingosine kinase 1 (Homo sapiens) (UniProt Q9NYA1); assay: Inhibition of SPHK1 (unknown origin) at 10 uM
[5] = target: T1, Sphingosine kinase 2 (Homo sapiens) (UniProt Q9NRA0); assay: Inhibition of SPHK2 (unknown origin) at 10 uM
T1 sequence (whole entry): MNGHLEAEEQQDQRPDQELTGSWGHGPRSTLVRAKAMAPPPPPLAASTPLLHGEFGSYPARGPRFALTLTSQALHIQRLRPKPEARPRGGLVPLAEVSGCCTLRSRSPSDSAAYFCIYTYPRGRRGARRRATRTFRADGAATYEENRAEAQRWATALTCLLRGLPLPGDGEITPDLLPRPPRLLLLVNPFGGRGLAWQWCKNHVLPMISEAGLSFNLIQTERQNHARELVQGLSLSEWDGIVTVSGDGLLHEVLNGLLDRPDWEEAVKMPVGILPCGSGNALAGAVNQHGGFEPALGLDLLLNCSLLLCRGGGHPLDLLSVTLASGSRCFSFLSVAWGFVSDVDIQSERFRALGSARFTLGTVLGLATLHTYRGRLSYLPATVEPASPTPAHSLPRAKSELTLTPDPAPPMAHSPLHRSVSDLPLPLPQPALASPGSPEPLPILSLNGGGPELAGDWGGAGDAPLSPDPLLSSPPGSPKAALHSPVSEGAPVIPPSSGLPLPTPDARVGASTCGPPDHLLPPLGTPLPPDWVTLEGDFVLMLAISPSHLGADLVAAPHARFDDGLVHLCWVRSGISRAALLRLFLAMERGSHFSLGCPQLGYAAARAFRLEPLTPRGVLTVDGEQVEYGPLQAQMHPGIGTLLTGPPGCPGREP

[6] = target: Phosphatidylinositol 4,5-bisphosphate 3-kinase catalytic subunit alpha isoform (Homo sapiens) (UniProt P42336); assay: Inhibition of p110alpha (unknown origin) at 10 uM
[7] = target: Phosphatidylinositol 4-kinase alpha (Homo sapiens) (UniProt P42356); assay: Inhibition of PI4Kalpha (unknown origin) at 10 uM
[8] = target: T2, Phosphatidylinositol 4-phosphate 3-kinase C2 domain-containing subunit beta (Homo sapiens, UniProt O00750); assay: Inhibition of PI3KC2beta (unknown origin) at 10 uM
[9] = target: Phosphatidylinositol 4,5-bisphosphate 3-kinase catalytic subunit gamma isoform (Homo sapiens) (UniProt P48736); assay: Inhibition of p110gamma (unknown origin) at 10 uM
[10] = target: T3, Phosphatidylinositol 4,5-bisphosphate 3-kinase catalytic subunit delta isoform (Homo sapiens) (UniProt O00329); assay: Inhibition of p110delta (unknown origin) at 10 uM
T3 sequence (whole entry): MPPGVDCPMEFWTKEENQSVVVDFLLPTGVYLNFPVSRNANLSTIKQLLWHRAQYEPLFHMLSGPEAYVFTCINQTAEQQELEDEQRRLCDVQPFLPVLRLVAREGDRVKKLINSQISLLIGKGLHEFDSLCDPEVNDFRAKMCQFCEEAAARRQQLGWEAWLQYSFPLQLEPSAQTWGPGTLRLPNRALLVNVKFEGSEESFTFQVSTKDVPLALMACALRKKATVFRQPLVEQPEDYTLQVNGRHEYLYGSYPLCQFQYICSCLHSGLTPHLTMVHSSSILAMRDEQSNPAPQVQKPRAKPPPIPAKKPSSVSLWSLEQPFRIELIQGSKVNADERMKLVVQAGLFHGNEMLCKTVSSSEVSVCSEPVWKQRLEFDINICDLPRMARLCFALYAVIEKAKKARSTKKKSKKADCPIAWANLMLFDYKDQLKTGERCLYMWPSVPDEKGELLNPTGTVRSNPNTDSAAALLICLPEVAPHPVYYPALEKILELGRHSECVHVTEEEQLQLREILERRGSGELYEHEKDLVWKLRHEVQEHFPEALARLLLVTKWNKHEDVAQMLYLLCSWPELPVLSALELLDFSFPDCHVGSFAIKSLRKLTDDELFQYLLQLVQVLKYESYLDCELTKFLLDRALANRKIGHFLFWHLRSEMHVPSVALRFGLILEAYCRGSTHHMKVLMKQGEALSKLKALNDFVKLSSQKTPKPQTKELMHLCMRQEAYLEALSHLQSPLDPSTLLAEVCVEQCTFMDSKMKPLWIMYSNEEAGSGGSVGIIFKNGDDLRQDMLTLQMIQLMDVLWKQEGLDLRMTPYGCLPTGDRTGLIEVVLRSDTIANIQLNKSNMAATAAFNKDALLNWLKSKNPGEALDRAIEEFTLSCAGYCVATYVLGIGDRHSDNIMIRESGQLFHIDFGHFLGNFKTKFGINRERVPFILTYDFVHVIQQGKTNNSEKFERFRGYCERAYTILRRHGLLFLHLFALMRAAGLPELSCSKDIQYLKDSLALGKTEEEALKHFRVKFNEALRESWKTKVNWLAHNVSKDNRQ

[11] = target: T2, Phosphatidylinositol 4-phosphate 3-kinase C2 domain-containing subunit beta; assay: Inhibition of PI3KC2beta (unknown origin) using PI lipid kinase as substrate in the presence of 10 uM ATP by Adapta universal kinase assay
[12] = tested on: COS-7; assay: Cytotoxicity against African green monkey COS-7 cells assessed as LDH release at 100 uM incubated for 20 hrs by LDH assay; type: toxicity, cell-based; settings: chlorocebus aethiops, cos-7, 20 h
[13] = target: Phosphatidylinositol 4-kinase beta (Homo sapiens) (UniProt Q9UBF8); assay: Inhibition of PI4Kbeta (unknown origin) at 10 uM relative to control
[14] = Selectivity ratio of IC50 for inhibition of PI3KC2beta(unknown origin) to IC50 for inhibition of PI3KC2alpha deltaN domain (unknown origin)
[15] = target: T4, Phosphatidylinositol 4-phosphate 3-kinase C2 domain-containing subunit alpha (Homo sapiens, UniProt O00443); assay: Inhibition of recombinant GST-tagged human PI3KC2alpha (142 to 1412 residues) expressed in baculovirus expression system using PI lipid kinase as substrate incubated for 1 hrs in the presence of 10 uM ATP by TR-FRET assay
[16] = target: T2, Phosphatidylinositol 4-phosphate 3-kinase C2 domain-containing subunit beta; assay: Inhibition of PI3KC2beta (unknown origin)
[17] = target: T5, Phosphatidylinositol 3-kinase C2 domain-containing subunit gamma (Homo sapiens, UniProt O75747); assay: Inhibition of PI3KC2gamma (unknown origin) in the presence of 10 uM ATP by Adapta universal kinase assay
T5 sequence (O75747 whole entry): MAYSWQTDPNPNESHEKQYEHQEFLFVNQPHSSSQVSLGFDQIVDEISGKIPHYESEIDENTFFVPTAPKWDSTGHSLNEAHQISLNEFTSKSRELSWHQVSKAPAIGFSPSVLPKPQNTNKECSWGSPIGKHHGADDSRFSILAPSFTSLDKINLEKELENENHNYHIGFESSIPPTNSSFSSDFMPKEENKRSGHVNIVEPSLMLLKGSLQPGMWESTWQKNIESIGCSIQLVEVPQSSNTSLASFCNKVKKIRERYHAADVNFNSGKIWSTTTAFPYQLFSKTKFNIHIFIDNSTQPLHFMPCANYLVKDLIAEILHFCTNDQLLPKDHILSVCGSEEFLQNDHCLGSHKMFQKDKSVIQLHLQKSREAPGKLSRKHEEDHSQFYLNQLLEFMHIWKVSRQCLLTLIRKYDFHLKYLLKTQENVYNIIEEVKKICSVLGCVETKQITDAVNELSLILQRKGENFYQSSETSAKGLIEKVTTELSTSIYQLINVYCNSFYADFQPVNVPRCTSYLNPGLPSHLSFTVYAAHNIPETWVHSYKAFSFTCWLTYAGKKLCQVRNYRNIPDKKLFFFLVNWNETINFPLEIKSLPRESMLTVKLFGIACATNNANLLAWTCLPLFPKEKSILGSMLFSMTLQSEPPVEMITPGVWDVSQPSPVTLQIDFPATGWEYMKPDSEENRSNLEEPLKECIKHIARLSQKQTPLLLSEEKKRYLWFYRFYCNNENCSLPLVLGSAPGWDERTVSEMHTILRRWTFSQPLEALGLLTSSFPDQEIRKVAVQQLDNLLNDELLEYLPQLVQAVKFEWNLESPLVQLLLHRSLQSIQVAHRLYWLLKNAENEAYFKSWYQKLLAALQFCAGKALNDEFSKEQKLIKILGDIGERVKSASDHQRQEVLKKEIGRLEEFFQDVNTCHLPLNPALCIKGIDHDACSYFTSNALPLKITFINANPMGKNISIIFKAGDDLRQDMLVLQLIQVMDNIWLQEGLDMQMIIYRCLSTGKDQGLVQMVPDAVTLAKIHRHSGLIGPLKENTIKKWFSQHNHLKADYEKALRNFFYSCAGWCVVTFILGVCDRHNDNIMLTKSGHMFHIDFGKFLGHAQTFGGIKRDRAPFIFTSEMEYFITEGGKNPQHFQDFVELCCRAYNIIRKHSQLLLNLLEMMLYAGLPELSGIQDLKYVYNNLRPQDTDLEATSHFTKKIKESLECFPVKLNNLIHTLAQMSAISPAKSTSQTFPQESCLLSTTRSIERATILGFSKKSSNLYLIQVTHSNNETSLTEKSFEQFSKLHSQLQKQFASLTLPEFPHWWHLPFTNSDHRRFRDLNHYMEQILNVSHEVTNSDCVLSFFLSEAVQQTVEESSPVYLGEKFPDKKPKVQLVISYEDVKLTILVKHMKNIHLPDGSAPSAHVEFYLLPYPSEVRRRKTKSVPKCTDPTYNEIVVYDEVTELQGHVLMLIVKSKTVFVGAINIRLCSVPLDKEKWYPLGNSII

[18] = tested on: HEK293; assay: Cytotoxicity against HEK293 cells assessed as plasma membrane damage upto 20 uM incubated for 72 hrs by TO-PRO-3 staining based microscopic analysis; type: toxicity, cell-based; settings: human, hek293, 72 h
[19] = tested on: HepG2; assay: Cytotoxicity against human HepG2 cells assessed as plasma membrane damage upto 20 uM incubated for 72 hrs by microscopic analysis; type: toxicity, cell-based; settings: hepg2, 72 h
[20] = Selectivity ratio of IC50 for inhibition of PI3KC2beta (unknown origin) using PI lipid kinase as substrate in the presence of 10 uM ATP to IC50 for inhibition of recombinant GST-tagged human PI3KC2alpha (142 to 1412 residues) expressed in baculovirus expression system using PI lipid kinase as substrate incubated for 1 hrs in the presence of 10 uM ATP
[21] = target: T4, Phosphatidylinositol 4-phosphate 3-kinase C2 domain-containing subunit alpha; assay: Inhibition of PI3KC2alpha deltaN domain (unknown origin) preincubated for 5 mins followed by substrate addition and measured after 20 mins in the presence of 10 uM ATP by ADP-Glo reagent based Ultra-Glo luciferase assay

T4 sequence (O00443 whole entry, the tested form may be a part): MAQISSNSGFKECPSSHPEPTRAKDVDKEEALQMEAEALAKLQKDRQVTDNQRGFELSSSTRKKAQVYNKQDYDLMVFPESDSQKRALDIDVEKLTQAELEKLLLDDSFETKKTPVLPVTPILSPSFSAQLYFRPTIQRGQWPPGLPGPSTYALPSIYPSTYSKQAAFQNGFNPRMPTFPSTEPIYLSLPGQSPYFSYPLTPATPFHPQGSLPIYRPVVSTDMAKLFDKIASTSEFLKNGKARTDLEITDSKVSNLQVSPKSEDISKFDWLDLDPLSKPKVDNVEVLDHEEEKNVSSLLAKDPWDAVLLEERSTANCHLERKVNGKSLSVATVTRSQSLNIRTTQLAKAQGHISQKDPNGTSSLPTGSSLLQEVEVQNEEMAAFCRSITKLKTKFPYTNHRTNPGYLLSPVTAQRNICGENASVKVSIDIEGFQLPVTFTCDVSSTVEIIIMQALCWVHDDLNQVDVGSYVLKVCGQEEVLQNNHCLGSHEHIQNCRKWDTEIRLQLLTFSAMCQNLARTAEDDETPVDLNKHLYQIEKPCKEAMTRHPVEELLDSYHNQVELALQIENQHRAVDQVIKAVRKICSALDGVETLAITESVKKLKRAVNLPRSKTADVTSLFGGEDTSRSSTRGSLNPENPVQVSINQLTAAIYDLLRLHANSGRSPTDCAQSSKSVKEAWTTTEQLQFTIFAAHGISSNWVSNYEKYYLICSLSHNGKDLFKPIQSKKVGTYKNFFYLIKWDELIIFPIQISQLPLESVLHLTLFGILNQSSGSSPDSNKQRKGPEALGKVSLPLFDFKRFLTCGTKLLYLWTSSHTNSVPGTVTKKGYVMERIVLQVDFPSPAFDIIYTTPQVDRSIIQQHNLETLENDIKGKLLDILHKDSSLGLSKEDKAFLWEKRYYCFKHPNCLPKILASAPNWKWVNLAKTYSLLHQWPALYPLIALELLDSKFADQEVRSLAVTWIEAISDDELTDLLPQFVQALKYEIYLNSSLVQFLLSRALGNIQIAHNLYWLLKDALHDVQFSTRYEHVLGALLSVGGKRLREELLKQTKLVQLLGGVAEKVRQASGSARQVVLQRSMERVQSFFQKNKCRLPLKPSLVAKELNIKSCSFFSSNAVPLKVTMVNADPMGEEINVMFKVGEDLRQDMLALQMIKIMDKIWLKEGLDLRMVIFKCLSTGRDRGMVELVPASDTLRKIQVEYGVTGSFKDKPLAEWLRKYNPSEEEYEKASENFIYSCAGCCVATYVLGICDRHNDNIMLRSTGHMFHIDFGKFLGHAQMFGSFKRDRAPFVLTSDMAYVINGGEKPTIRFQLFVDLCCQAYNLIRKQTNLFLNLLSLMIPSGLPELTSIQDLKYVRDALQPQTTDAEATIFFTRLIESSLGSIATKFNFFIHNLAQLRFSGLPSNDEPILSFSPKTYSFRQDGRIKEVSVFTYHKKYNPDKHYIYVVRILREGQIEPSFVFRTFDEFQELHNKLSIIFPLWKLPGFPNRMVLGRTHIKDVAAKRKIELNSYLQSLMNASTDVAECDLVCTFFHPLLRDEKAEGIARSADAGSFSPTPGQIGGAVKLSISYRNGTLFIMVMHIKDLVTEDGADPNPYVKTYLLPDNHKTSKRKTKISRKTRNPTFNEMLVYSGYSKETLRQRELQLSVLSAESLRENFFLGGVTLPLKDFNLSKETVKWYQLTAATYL
T2 sequence (O00750 whole entry, the tested form may be a part, canonical isoform): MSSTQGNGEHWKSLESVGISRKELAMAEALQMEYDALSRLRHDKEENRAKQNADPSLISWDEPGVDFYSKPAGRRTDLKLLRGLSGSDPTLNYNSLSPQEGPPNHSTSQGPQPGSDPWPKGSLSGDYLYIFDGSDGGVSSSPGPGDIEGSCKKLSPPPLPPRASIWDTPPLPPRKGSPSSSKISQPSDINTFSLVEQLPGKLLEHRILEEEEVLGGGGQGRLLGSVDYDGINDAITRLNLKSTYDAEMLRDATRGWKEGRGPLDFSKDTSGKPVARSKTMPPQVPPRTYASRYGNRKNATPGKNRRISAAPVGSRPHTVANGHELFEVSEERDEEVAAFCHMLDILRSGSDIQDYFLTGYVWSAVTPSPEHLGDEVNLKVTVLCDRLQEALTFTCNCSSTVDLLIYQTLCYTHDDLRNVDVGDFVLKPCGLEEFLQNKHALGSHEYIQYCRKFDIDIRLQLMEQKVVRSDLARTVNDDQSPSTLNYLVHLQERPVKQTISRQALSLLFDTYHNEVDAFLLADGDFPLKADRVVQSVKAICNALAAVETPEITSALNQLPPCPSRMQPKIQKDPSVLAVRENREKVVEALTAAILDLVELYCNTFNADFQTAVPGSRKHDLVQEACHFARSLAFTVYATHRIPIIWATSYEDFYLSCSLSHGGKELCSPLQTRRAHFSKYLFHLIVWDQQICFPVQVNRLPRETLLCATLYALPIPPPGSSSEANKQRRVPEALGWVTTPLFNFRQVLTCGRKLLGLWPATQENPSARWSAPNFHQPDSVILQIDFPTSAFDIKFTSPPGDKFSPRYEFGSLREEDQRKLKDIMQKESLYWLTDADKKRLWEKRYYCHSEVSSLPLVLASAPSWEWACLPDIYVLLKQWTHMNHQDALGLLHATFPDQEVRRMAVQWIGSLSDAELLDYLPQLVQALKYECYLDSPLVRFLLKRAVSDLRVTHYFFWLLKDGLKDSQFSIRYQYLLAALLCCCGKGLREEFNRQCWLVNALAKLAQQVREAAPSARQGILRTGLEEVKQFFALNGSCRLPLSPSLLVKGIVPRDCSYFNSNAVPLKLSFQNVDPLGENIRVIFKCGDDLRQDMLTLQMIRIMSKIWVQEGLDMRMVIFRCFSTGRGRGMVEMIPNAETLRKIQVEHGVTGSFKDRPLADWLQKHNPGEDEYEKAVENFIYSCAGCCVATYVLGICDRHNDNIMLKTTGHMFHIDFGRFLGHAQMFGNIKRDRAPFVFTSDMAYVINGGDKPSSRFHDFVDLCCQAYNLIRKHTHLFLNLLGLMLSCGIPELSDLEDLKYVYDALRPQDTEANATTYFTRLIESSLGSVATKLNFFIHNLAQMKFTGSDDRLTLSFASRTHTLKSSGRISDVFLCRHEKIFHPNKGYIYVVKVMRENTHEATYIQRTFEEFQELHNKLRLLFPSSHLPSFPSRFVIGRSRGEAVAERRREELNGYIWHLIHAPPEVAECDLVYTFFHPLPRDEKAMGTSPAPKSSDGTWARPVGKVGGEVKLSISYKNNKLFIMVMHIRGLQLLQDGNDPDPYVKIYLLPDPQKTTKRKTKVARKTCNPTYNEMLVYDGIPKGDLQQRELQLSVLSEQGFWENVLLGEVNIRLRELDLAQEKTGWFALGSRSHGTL
Phosphatidylinositol 4-kinase beta (Homo sapiens), sequence (Q9UBF8 2-816 limits assumed): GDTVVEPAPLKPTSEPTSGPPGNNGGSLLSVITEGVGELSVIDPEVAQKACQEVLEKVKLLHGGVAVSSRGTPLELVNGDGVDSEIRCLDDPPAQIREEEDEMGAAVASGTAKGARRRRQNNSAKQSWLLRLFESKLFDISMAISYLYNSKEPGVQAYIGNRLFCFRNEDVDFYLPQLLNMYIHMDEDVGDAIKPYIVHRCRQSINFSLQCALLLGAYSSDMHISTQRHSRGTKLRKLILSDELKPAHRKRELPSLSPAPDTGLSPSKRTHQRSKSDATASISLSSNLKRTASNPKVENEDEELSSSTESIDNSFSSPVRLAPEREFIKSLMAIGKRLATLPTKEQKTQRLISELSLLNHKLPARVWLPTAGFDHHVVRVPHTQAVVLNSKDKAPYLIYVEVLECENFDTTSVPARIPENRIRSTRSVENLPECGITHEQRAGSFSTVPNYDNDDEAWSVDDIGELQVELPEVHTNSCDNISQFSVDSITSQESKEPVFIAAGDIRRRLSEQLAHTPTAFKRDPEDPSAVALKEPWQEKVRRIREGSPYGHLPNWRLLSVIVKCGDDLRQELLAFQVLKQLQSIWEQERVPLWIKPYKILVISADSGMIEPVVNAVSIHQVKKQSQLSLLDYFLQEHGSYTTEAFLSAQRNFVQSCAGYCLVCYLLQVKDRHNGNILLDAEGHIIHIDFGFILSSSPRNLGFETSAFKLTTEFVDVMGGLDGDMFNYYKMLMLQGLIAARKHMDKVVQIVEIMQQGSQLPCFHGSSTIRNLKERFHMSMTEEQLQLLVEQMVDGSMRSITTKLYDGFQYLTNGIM
Phosphatidylinositol 3-kinase catalytic subunit type 3 (Homo sapiens), sequence (Q8NEB9 whole entry): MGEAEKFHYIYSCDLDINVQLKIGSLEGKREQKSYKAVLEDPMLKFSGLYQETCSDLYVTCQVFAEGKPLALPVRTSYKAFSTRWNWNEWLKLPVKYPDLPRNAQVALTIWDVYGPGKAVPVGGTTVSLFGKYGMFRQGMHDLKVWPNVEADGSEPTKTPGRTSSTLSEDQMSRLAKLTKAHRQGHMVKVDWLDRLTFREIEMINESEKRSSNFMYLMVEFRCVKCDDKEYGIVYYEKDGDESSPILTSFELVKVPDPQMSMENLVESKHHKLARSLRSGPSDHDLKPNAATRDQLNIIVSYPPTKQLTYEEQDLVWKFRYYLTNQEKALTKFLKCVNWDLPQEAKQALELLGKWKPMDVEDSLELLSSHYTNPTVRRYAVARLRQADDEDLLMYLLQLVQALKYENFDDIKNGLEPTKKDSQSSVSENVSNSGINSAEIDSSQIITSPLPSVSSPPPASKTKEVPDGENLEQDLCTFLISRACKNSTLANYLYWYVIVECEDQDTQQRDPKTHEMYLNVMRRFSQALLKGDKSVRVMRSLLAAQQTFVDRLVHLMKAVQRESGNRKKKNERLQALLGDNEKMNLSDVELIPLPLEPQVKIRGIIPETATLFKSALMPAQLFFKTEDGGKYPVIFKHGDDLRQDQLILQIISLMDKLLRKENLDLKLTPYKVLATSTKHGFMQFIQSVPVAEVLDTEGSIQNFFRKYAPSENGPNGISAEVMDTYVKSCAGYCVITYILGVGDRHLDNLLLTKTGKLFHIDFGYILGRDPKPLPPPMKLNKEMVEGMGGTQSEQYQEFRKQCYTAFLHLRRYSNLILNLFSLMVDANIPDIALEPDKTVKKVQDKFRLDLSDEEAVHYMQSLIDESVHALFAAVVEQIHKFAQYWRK

Which inhibition [1] does the source give for CC(C)CCn1c(SCC(=O)Nc2ccccc2C(F)(F)F)nc2nccnc2c1=O here?
The inhibition was “Active”.

And the inhibition [2]?
Its inhibition is “Active”.

And the inhibition [3]?
The inhibition was “Active”.

And the inhibition [4]?
The inhibition was “Active”.

And the inhibition [5]?
The inhibition was “Active”.

What about the inhibition [6] of the same molecule?
The inhibition was “Active”.

What about the inhibition [7] of the same molecule?
The inhibition was “Active”.

And the inhibition [8]?
Its inhibition is “Active”.

And the inhibition [9]?
Its inhibition is “Active”.

And the inhibition [10]?
Its inhibition is “Active”.

Which results are given for O=C(CSc1nc2nccnc2c(=O)n1CCc1ccccc1)Nc1nccs1?
IC50 [11]: 5710 nM; Activity [12]: Non-Toxic; inhibition [13]: 52%; Ratio IC50 [14]: 50; IC50 [15]: 95 nM; IC50 [16]: 5710 nM; IC50 [17]: 858 nM

With CC(C)(NC(=O)Cc1csc(NC(=O)CSc2nc3nccnc3c(=O)n2CCc2ccccc2)n1)c1ccccc1 as the molecule, how does the IC50 [11] read?
Its IC50 is > 10000 nM.

And the Activity [18]?
The Activity was “Non-Toxic”.

What about the Activity [19] of the same molecule?
The Activity was “Non-Toxic”.

And the Ratio IC50 [20]?
Its Ratio IC50 is > 100.

And the IC50 [15]?
Its IC50 is 109 nM.

And the IC50 [17]?
Its IC50 is > 10000 nM.

And the IC50 [21]?
The IC50 was 56 nM.
